Read-outs that look alike come from different tables or passages of the source.
Experiments:
[1] = test system: HCV replicons (Huh-7 luc/neo cells, NS3-NS5B regions of HCV type 1b); assay: Replicon assay (Huh-Luc luciferase, HCV RNA replication); type: cell-based; details: Hepatitis C virus, Huh-7, 72 h, read-out: EC50 Replicon assay
From the text: The compounds of formula (I) were examined for activity in the inhibition of HCV RNA replication in a cellular assay. […] The cellular assay was based on a bicistronic expression construct, as described by Lohmann et al. (1999) Science vol. 285 pp. 110-113 with modifications described by Krieger et al. (2001) Journal of Virology 75: 4614-4624, in a multi-target screening strategy. In essence, the method was as follows.
The assay utilized the stably transfected cell line Huh-7 luc/neo (hereafter referred to as Huh-Luc). This cell line harbors an RNA encoding a bicistronic expression construct comprising the wild type NS3-NS5B regions of HCV type 1b translated from an Internal Ribosome Entry Site (IRES) from encephalomyocarditis virus (EMCV), preceded by a reporter portion (FfL-luciferase), and a selectable marker portion (neo^R, neomycine phosphotransferase). The construct is bordered by 5′ and 3′ NTRs (non-translated regions) from HCV type 1b. Continued culture of the replicon cells in the presence of G418 (neo^R) is dependent on the replication of the HCV RNA. The stably transfected replicon cells that express HCV RNA, which replicates autonomously and to high levels, encoding inter alia luciferase, are used for screening the antiviral compounds.
The replicon cells were plated in 384 well plates in the presence of the test and control compounds which were added in various concentrations. Following an incubation of three days, HCV replication was measured by assaying luciferase activity (using standard luciferase assay substrates and reagents and a Perkin Elmer ViewLux™ ultraHTS microplate imager). Replicon cells in the control cultures have high luciferase expression in the absence of any inhibitor. The inhibitory activity of the compound on luciferase activity was monitored on the Huh-Luc cells, enabling a dose-response curve for each test compound. EC50 values were then calculated, which value represents the amount of the compound required to decrease by 50% the level of detected luciferase activity, or more specifically, the ability of the genetically linked HCV replicon RNA to replicate.

[2] = target: T1, HCV NS3/4A protease complexes (full-length hepatitis C NS3 protease enzyme) (Hepatitis C virus genotype 1a, UniProt P27958); assay: Inhibition assay (enzyme assay), depsipeptide substrate hydrolysis with NS4A cofactor; type: biochemical; details: 1 nM enzyme, 25 μM NS4A cofactor, 0.5 μM substrate, 30° C.
T1 construct: full-length hepatitis C NS3 protease enzyme
T1 sequence (P27958 1027-1657, one chain of several): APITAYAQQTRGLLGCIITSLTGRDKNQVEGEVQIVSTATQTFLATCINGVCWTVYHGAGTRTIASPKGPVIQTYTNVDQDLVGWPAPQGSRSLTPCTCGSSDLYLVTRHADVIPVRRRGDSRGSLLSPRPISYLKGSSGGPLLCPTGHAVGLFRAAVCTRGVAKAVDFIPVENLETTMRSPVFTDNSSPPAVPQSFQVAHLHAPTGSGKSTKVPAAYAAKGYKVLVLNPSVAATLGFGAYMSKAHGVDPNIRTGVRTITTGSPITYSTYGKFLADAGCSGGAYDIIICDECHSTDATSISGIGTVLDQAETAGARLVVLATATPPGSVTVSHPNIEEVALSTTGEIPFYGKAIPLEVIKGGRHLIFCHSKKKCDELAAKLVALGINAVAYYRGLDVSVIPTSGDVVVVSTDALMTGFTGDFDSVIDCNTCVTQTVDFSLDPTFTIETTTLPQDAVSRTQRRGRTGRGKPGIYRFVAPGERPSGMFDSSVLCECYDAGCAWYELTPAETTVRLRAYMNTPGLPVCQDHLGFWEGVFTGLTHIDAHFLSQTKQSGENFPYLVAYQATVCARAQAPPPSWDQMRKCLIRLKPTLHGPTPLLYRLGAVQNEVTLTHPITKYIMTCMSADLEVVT
Description: The aim of this in vitro assay was to measure the inhibition of HCV NS3/4A protease complexes by the compounds of the present invention. This assay provides an indication of how effective compounds of the present invention would be in inhibiting HCV NS3/4A proteolytic activity.
The inhibition of full-length hepatitis C NS3 protease enzyme was measured essentially as described in Poliakov, 2002 Prot Expression & Purification 25 363 371. Briefly, the hydrolysis of a depsipeptide substrate, Ac-DED(Edans)EEAbuψ[COO]ASK(Dabcyl)-NH2 (AnaSpec, San José, USA), was measured spectrofluorometrically in the presence of a peptide cofactor, KKGSVVIVGRIVLSGK (Åke Engström, Department of Medical Biochemistry and Microbiology, Uppsala University, Sweden). [Landro, 1997 #Biochem 36 9340-9348]. The enzyme (1 nM) was incubated in 50 mM HEPES, pH 7.5, 10 mM DTT, 40% glycerol, 0.1% n-octyl-D-glucoside, with 25 μM NS4A cofactor and inhibitor at 30° C. for 10 min, whereupon the reaction was initiated by addition of 0.5 μM substrate. Inhibitors were dissolved in DMSO, sonicated for 30 sec. and vortexed. The solutions were stored at −20° C. between measurements.
The final concentration of DMSO in the assay sample was adjusted to 3.3%. The rate of hydrolysis was corrected for inner filter effects according to published procedures [Liu, Analytical Biochemistry, 1999, vol. 267, pp. 331-335]. Ki values were estimated by non-linear regression analysis (GraFit, Erithacus Software, Staines, MX, UK), using a model for competitive inhibition and a fixed value for Km (0.15 μM). A minimum of two replicates was performed for all measurements.

[3] = Huh-Luc cells, three days incubation, luciferase activity

| Compound | EC50 [1, 3] [nM] | Ki [2] [nM] | EC50 [1] [nM] |
| --- | --- | --- | --- |
| CN1CCCC/C=C\[C@@H]2C[C@@]2(C(=O)NS(=O)(=O)C2(C)CC2)NC(=O)[C@@H]2C[C@@H](OC(=O)Nc3cccc(C#N)c3)C[C@H]2C1=O [Example 13, (3-Cyanophenyl)-carbamic acid 13-methyl-4-(1-methylcyclopropanesulfonylamino-carbonyl)-2,14-dioxo-3,13-diaza-tricyclo[13.3.0.0*4,6*]octadec-7-en-17-yl ester] | 0.5 to 199 | – | – |
| Cc1ccc(C#N)c(NC(=O)O[C@@H]2C[C@H]3C(=O)N[C@]4(C(=O)NS(=O)(=O)C5CC5)C[C@H]4/C=C\CCCCN(C)C(=O)[C@@H]3C2)c1 [Example 18, (2-Cyano-5-methyl-phenyl)-carbamic acid 4-cyclopropanesulfonylaminocarbonyl-13-methyl-2,14-dioxo-3,13-diaza-tricyclo[13.3.0.0*4,6*]octadec-7-en-17-yl ester] | 200 to 990 | – | – |
| COC(=O)c1cccc(NC(=O)O[C@@H]2C[C@H]3C(=O)N[C@]4(C(=O)NS(=O)(=O)C5CC5)C[C@H]4/C=C\CCCCN(C)C(=O)[C@@H]3C2)c1 [Example 5, 3-(4-Cyclopropanesulfonylaminocarbonyl-13-methyl-2,14-dioxo-3,13-diaza-tricyclo-[13.3.0.0*4,6*]octadec-7-en-17-yloxycarbonylamino)-benzoic acid methyl ester] | 1000 to 10000 | – | – |
| CN1CCCCC=CC2CC2(C(=O)NS(=O)(=O)C2CC2)NC(=O)C2CC(OC(=O)Nc3ccccc3C#N)CC2C1=O (stereo not drawn) [Example 1, (2-Cyanophenyl)-carbamic acid 4-cyclopropanesulfonylaminocarbonyl-13-methyl-2,14-dioxo-3,13-diaza-tricyclo[13.3.0.0*4,6*]octadec-7-en-17-yl ester] | > 10000 | 30 to 100 | – |
| Cc1cccc(NC(=O)O[C@@H]2C[C@H]3C(=O)N[C@]4(C(=O)NS(=O)(=O)C5CC5)C[C@H]4/C=C\CCCCN(C)C(=O)[C@@H]3C2)c1 [Example 15, m-Tolyl-carbamic acid 4-cyclopropanesulfonylaminocarbonyl-13-methyl-2,14-dioxo-3,13-diaza-tricyclo[13.3.0.0*4,6*]octadec-7-en-17-yl ester] | > 10000 | – | – |
| COc1ccccc1NC(=O)O[C@@H]1C[C@H]2C(=O)N[C@]3(C(=O)NS(=O)(=O)C4CC4)C[C@H]3/C=C\CCCCN(C)C(=O)[C@@H]2C1 [Example 3, (2-Methoxy-phenyl)-carbamic acid 4-cyclopropanesulfonylaminocarbonyl-13-methyl-2,14-dioxo-3,13-diaza-tricyclo[13.3.0.0*4,6*]octadec-7-en-17-yl ester] | 1000 to 10000 | 0.1 to 29.9 | – |
| CN1CCCC/C=C\[C@@H]2C[C@@]2(C(=O)NS(=O)(=O)C2CC2)NC(=O)[C@@H]2C[C@@H](OC(=O)Nc3cccc(Oc4ccccc4)c3)C[C@H]2C1=O [Example 11, (3-Phenoxy-phenyl)-carbamic acid 4-cyclopropanesulfonylaminocarbonyl-13-methyl-2,14-dioxo-3,13-diaza-tricyclo[13.3.0.0*4,6*]octadec-7-en-17-yl ester] | 1000 to 10000 | – | – |
| CN1CCCC/C=C\[C@@H]2C[C@@]2(C(=O)NS(=O)(=O)C2CC2)NC(=O)[C@@H]2C[C@@H](OC(=O)Nc3cccc(C#N)c3)C[C@H]2C1=O [Example 12, (3-Cyano-phenyl)-carbamic acid 4-cyclopropanesulfonylaminocarbonyl-13-methyl-2,14-dioxo-3,13-diaza-tricyclo[13.3.0.0*4,6*]octadec-7-en-17-yl ester] | 200 to 990 | – | – |
| COc1ccc(C#N)cc1NC(=O)OC1CC2C(=O)NC3(C(=O)NS(=O)(=O)C4(C)CC4)CC3C=CCCCCN(C)C(=O)C2C1 (stereo not drawn) [Example 6c, (5-Cyano-2-methoxy-phenyl)-carbamic acid 13-methyl-4-(1-methyl-cyclopropanesulfonylaminocarbonyl)-2,14-dioxo-3,13-diaza-tricyclo[13.3.0.0*4,6*]-octadec-7-en-17-yl ester] | > 10000 | – | – |
| COc1cccc(NC(=O)O[C@@H]2C[C@H]3C(=O)N[C@]4(C(=O)NS(=O)(=O)C5(C)CC5)C[C@H]4/C=C\CCCCN(C)C(=O)[C@@H]3C2)c1 [Example 14, (3-Methoxy-phenyl)-carbamic acid 13-methyl-4-(1-methyl-cyclopropanesulfonyl-aminocarbonyl)-2,14-dioxo-3,13-diaza-tricyclo[13.3.0.0*4,6*]octadec-7-en-17-yl ester] | 200 to 990 | – | – |
| CN1CCCC/C=C\[C@@H]2C[C@@]2(C(=O)NS(=O)(=O)C2(C)CC2)NC(=O)[C@@H]2C[C@@H](OC(=O)Nc3cccc(N(C)C)c3)C[C@H]2C1=O [Example 9, (3-Dimethylaminophenyl)-carbamic acid 13-methyl-4-(1-methyl-cyclopropane-sulfonylaminocarbonyl)-2,14-dioxo-3,13-diaza-tricyclo[13.3.0.0*4,6*]octadec-7-en-17-yl ester] | – | – | 1000 to 10000 |
| Cc1ccc(F)c(NC(=O)O[C@@H]2C[C@H]3C(=O)N[C@]4(C(=O)NS(=O)(=O)C5CC5)C[C@H]4/C=C\CCCCN(C)C(=O)[C@@H]3C2)c1 [Example 16, (2-Fluoro-5-methyl-phenyl)-carbamic acid 4-cyclopropanesulfonylaminocarbonyl-13-methyl-2,14-dioxo-3,13-diaza-tricyclo[13.3.0.0*4,6*]octadec-7-en-17-yl ester] | 1000 to 10000 | – | – |
| COc1cccc(NC(=O)O[C@@H]2C[C@H]3C(=O)N[C@]4(C(=O)NS(=O)(=O)C5CC5)C[C@H]4/C=C\CCCCN(C)C(=O)[C@@H]3C2)c1 [Example 10, (3-Methoxyphenyl)-carbamic acid 4-cyclopropanesulfonylaminocarbonyl-13-methyl-2,14-dioxo-3,13-diaza-tricyclo[13.3.0.0*4,6*]octadec-7-en-17-yl ester] | 1000 to 10000 | – | – |
| Cc1nc(-c2cccc(NC(=O)O[C@@H]3C[C@H]4C(=O)N[C@]5(C(=O)NS(=O)(=O)C6CC6)C[C@H]5/C=C\CCCCN(C)C(=O)[C@@H]4C3)c2)cs1 [Example 17, [3-(2-Methyl-thiazol-4-yl)-phenyl]-carbamic acid 4-cyclopropanesulfonylamino-carbonyl-13-methyl-2,14-dioxo-3,13-diaza-tricyclo[13.3.0.0*4,6*]octadec-7-en-17-yl ester] | 1000 to 10000 | – | – |
| CN1CCCC/C=C\[C@@H]2C[C@@]2(C(=O)NS(=O)(=O)C2CC2)NC(=O)[C@@H]2C[C@@H](OC(=O)Nc3ccccc3Oc3ccccc3)C[C@H]2C1=O [Example 2, (2-Phenoxyphenyl)-carbamic acid 4-cyclopropanesulfonylaminocarbonyl-13-methyl-2,14-dioxo-3,13-diaza-tricyclo[13.3.0.0*4,6*]octadec-7-en-17-yl ester] | 1000 to 10000 | 0.1 to 29.9 | – |

— patent US8383584B2, “HCV inhibiting macrocyclic phenylcarbamates” (Medivir AB, priority 2007, dated 2013)
